Test results reported in patent publication US10144938B2, “Methods of processing aromatic compounds” (WISCONSIN ALUMNI RESEARCH FOUNDATION, priority 2015, dated 2018).

Assays:
[1] = system: bacterial or yeast ethanologens; details: literature reports; cited from earlier work
R. sphaeroides 2.4.1 = test: Glucose and xylose consumption in synthetic hydrolysate with individual aromatics added; assay type: cell-based, Rhodobacter sphaeroides; details: individual aromatics at concentrations present in SynH2, diluted to 20% strength, FIG. 9
Text: For comparison, glucose and xylose utilization in 20% SynH2^− (no aromatics), as well as in 20% ACSH and 20% AHPCSH are also included.

SMILES: CC(=O)c1ccc(O)cc1 [4-Hydroxyacetophenone]
- Inhibitory to bacterial or yeast ethanologens [1]: inhibitory
- Effect on glucose utilization (R. sphaeroides 2.4.1): inhibited glucose utilization

SMILES: O=Cc1ccc(O)cc1 [4-Hydroxybenzaldehyde]
- Inhibitory to bacterial or yeast ethanologens [1]: inhibitory
- Effect on glucose utilization (R. sphaeroides 2.4.1): inhibited glucose utilization

SMILES: COc1cc(C(C)=O)ccc1O [Acetovanillone]
- Inhibitory to bacterial or yeast ethanologens [1]: inhibitory

SMILES: O=C(O)c1ccccc1 [Benzoate]
- Inhibitory to bacterial or yeast ethanologens [1]: inhibitory

SMILES: COc1cc(C=O)ccc1O [Vanillin]
- Inhibitory to bacterial or yeast ethanologens [1]: inhibitory

SMILES: O=C(O)/C=C/c1ccc(O)cc1 [p-Coumaric acid]
- Inhibitory to bacterial or yeast ethanologens [1]: inhibitory
- Effect on glucose utilization (R. sphaeroides 2.4.1): inhibited glucose utilization
